Assay results published in ChEMBL document CHEMBL4002567, “Rational design and synthesis of 1,5-disubstituted tetrazoles as potent inhibitors of the MDM2-p53 interaction” (Eur J Med Chem, 2017).

What was measured:
[1] = target: T1, Protein Mdm4 (Homo sapiens, UniProt O15151)
T1 sequence (O15151 whole entry): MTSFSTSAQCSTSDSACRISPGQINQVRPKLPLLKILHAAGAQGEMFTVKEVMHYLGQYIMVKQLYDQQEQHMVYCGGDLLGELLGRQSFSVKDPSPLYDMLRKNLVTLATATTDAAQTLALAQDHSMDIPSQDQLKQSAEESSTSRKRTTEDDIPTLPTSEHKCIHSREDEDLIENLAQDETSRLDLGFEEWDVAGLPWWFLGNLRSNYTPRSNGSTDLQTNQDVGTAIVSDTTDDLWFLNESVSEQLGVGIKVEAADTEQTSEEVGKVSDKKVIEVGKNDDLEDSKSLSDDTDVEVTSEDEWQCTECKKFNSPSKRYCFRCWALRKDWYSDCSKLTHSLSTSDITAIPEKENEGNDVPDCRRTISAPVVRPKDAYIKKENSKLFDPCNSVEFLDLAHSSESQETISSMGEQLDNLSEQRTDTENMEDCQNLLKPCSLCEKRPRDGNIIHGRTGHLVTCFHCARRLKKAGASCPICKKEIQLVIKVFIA

[2] = target: E3 ubiquitin-protein ligase Mdm2 (Homo sapiens, UniProt Q00987)
Chain of E3 ubiquitin-protein ligase Mdm2 (Q00987 whole entry): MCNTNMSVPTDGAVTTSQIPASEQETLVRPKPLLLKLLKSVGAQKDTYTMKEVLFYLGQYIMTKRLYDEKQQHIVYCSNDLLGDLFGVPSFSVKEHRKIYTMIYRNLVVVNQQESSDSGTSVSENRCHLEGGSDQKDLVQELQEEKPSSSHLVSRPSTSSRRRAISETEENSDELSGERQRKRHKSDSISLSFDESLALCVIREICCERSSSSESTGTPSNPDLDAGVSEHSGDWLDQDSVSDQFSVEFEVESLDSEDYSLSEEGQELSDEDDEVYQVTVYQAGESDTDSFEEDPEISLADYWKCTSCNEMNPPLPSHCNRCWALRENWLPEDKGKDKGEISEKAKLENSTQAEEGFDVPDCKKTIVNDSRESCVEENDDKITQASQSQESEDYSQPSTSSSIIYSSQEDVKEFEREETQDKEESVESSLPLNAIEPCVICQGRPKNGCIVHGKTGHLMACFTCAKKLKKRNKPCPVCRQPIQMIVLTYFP

Ki ([2]; read-out: Ki)	Compound	Ki [1]	Ki [2]
	O=C(O)c1[nH]c2cc(Cl)ccc2c1C(NCC1CCCCC1)c1nnnn1Cc1ccc(OCc2ccccc2Cl)cc1 (configuration not stated)	Not Active	
	CCOC(=O)c1[nH]c2cc(Cl)ccc2c1C(NC1CCCC1)c1nnnn1-c1cccc(Oc2ccccc2)c1 (configuration not stated)	Not Active	Not Active
	O=C(O)c1[nH]c2cc(Cl)ccc2c1C(NC1CCCCC1)c1nnnn1-c1ccc(OCc2ccccc2)cc1 (configuration not stated)	Not Active	
	CCOC(=O)c1[nH]c2cc(Cl)ccc2c1C(NCc1ccc(Cl)cc1)c1nnnn1Cc1ccc(Cl)cc1 (configuration not stated)	Not Active	Not Active
	CCOC(=O)c1[nH]c2cc(Cl)ccc2c1C(NCC1CCCCC1)c1nnnn1Cc1ccc(Cl)cc1 (configuration not stated)	Not Active	Not Active
	CCCCCNC(c1c(C(=O)O)[nH]c2cc(Cl)ccc12)c1nnnn1-c1ccc(F)c(Cl)c1 (configuration not stated)	Not Active	
	O=C(O)c1[nH]c2cc(Cl)ccc2c1C(NC1CCCCCC1)c1nnnn1-c1cccc(OCc2ccccc2)c1 (configuration not stated)	Not Active	
	CCCCCNC(c1c(C(=O)OCC)[nH]c2cc(Cl)ccc12)c1nnnn1-c1ccc(OCc2c(Cl)cccc2Cl)cc1 (configuration not stated)	Not Active	Not Active
	CCOC(=O)c1[nH]c2cc(Cl)ccc2c1C(NCc1ccc(Cl)cc1)c1nnnn1Cc1ccc(OCc2ccccc2Br)cc1 (configuration not stated)	Not Active	Not Active
	CCOC(=O)c1[nH]c2cc(Cl)ccc2c1C(NCC1CCCCC1)c1nnnn1-c1ccc(OCc2ccccc2Br)cc1 (configuration not stated)	Not Active	Not Active
	O=C(O)c1[nH]c2cc(Cl)ccc2c1C(NCC1CCCCC1)c1nnnn1Cc1ccc(OCc2ccccc2F)cc1 (configuration not stated)	Not Active	
	O=C(O)c1[nH]c2cc(Cl)ccc2c1C(NC1CCCC1)c1nnnn1-c1cccc(OCc2ccccc2)c1 (configuration not stated)	Not Active	
	CCCCCNC(c1c(C(=O)OCC)[nH]c2cc(Cl)ccc12)c1nnnn1-c1ccc(C(C)C)cc1 (configuration not stated)	Not Active	Not Active
	CCOC(=O)c1[nH]c2cc(Cl)ccc2c1C(NC1CCCCC1)c1nnnn1-c1cccc(OCc2ccccc2)c1 (configuration not stated)	Not Active	Not Active
	O=C(O)c1[nH]c2cc(Cl)ccc2c1C(NCC1CCCCC1)c1nnnn1Cc1ccc(Cl)cc1 (configuration not stated)	Not Active	
	O=C(O)c1[nH]c2cc(Cl)ccc2c1C(NCC1CCCCC1)c1nnnn1-c1ccc(OCc2c(Cl)cccc2Cl)cc1 (configuration not stated)	Not Active	
	CCOC(=O)c1[nH]c2cc(Cl)ccc2c1C(NC1CCCCCC1)c1nnnn1-c1cccc(Oc2ccccc2)c1 (configuration not stated)	Not Active	Not Active
	CCCCCNC(c1c(C(=O)O)[nH]c2cc(Cl)ccc12)c1nnnn1Cc1ccc(OCc2ccccc2Cl)cc1 (configuration not stated)	Not Active	
	CCCCCNC(c1c(C(=O)OCC)[nH]c2cc(Cl)ccc12)c1nnnn1-c1ccc(OCc2ccccc2Br)cc1 (configuration not stated)	Not Active	Not Active
	CCOC(=O)c1[nH]c2cc(Cl)ccc2c1C(NC1CCCCC1)c1nnnn1-c1ccc(OCc2ccccc2)cc1 (configuration not stated)	Not Active	Not Active

Ki ([2]; read-out: Ki)	Compound	Ki [1]	Ki [2]
	O=C(O)c1[nH]c2cc(Cl)ccc2c1C(NCC1CCCCC1)c1nnnn1-c1ccc(OCc2ccc(Br)cc2)cc1 (configuration not stated)	Not Active	
	CCOC(=O)c1[nH]c2cc(Cl)ccc2c1C(NCC1CCCCC1)c1nnnn1-c1ccc(OCc2ccc(Br)cc2)cc1 (configuration not stated)	Not Active	Not Active
	O=C(O)c1[nH]c2cc(Cl)ccc2c1C(NC1CCCC1)c1nnnn1-c1cccc(Oc2ccccc2)c1 (configuration not stated)	Not Active	
	CCOC(=O)c1[nH]c2cc(Cl)ccc2c1C(NCC1CCCCC1)c1nnnn1-c1ccc(F)c(Cl)c1 (configuration not stated)	Not Active	Not Active
	CCOC(=O)c1[nH]c2cc(Cl)ccc2c1C(NC1CCCCC1)c1nnnn1-c1cccc(Oc2ccccc2)c1 (configuration not stated)	Not Active	Not Active
	CCCCCNC(c1c(C(=O)OCC)[nH]c2cc(Cl)ccc12)c1nnnn1-c1ccc(Cl)cc1 (configuration not stated)	Not Active	Not Active
	O=C(O)c1[nH]c2cc(Cl)ccc2c1C(NC1CCCCC1)c1nnnn1-c1cccc(Oc2ccccc2)c1 (configuration not stated)	Not Active	
	CCCCCNC(c1c(C(=O)O)[nH]c2cc(Cl)ccc12)c1nnnn1Cc1ccc(OCc2ccccc2Br)cc1 (configuration not stated)	Not Active	
	O=C(O)c1[nH]c2cc(Cl)ccc2c1C(NC1CCCC1)c1nnnn1-c1ccc(OCc2ccccc2)cc1 (configuration not stated)	Not Active	
	O=C(O)c1[nH]c2cc(Cl)ccc2c1C(NC1CCC1)c1nnnn1-c1ccc(OCc2ccccc2Br)cc1 (configuration not stated)	Not Active	
	CCOC(=O)c1[nH]c2cc(Cl)ccc2c1C(NCC1CCCCC1)c1nnnn1Cc1ccc(OCc2ccccc2Cl)cc1 (configuration not stated)	Not Active	Not Active
	CCOC(=O)c1[nH]c2cc(Cl)ccc2c1C(NC1CCCCCC1)c1nnnn1-c1ccc(OCc2ccccc2)cc1 (configuration not stated)	Not Active	Not Active
	CCCCCNC(c1c(C(=O)OCC)[nH]c2cc(Cl)ccc12)c1nnnn1-c1ccc(F)c(Cl)c1 (configuration not stated)	Not Active	Not Active
	CC(C)c1ccc(-n2nnnc2C(NCC2CCCCC2)c2c(C(=O)O)[nH]c3cc(Cl)ccc23)cc1 (configuration not stated)	Not Active	
	CCCCCNC(c1c(C(=O)OCC)[nH]c2cc(Cl)ccc12)c1nnnn1Cc1ccc(Cl)cc1 (configuration not stated)	Not Active	Not Active
	O=C(O)c1[nH]c2cc(Cl)ccc2c1C(NCC1CCCCC1)c1nnnn1-c1ccc(F)c(Cl)c1 (configuration not stated)	Not Active	
	CCOC(=O)c1[nH]c2cc(Cl)ccc2c1C(NCC1CCCCC1)c1nnnn1-c1ccc(OCc2c(Cl)cccc2Cl)cc1 (configuration not stated)	Not Active	Not Active
	O=C(O)c1[nH]c2cc(Cl)ccc2c1C(NC1CCCCCC1)c1nnnn1-c1ccc(OCc2ccccc2)cc1 (configuration not stated)	Not Active	
	O=C(O)c1[nH]c2cc(Cl)ccc2c1C(NC1C2CC3CC(C2)CC1C3)c1nnnn1-c1ccc(OCc2ccccc2Br)cc1 (configuration not stated)	Not Active	
	CCOC(=O)c1[nH]c2cc(Cl)ccc2c1C(NC1CCCCCC1)c1nnnn1-c1cccc(OCc2ccccc2)c1 (configuration not stated)	Not Active	Not Active

Ki ([2]; read-out: Ki)	Compound	Ki [1]	Ki [2]
	CCCCCNC(c1c(C(=O)O)[nH]c2cc(Cl)ccc12)c1nnnn1-c1ccc(OCc2ccc(Br)cc2)cc1 (configuration not stated)	Not Active	
	O=C(O)c1[nH]c2cc(Cl)ccc2c1C(NCc1ccc(Cl)cc1)c1nnnn1Cc1ccc(Cl)cc1 (configuration not stated)	Not Active	
	CCOC(=O)c1[nH]c2cc(Cl)ccc2c1C(NC1CCC1)c1nnnn1-c1ccc(OCc2ccccc2Br)cc1 (configuration not stated)	Not Active	Not Active
	CCCCCNC(c1c(C(=O)OCC)[nH]c2cc(Cl)ccc12)c1nnnn1Cc1ccc(OCc2ccccc2F)cc1 (configuration not stated)	Not Active	
	CCOC(=O)c1[nH]c2cc(Cl)ccc2c1C(NCC1CCCCC1)c1nnnn1Cc1ccc(OCc2ccccc2Br)cc1 (configuration not stated)	Not Active	Not Active
	CCCCCNC(c1c(C(=O)O)[nH]c2cc(Cl)ccc12)c1nnnn1-c1ccc(OCc2c(Cl)cccc2Cl)cc1 (configuration not stated)	Not Active	
	O=C(O)c1[nH]c2cc(Cl)ccc2c1C(NC1CCCCCC1)c1nnnn1-c1cccc(Oc2ccccc2)c1 (configuration not stated)	Not Active	
	O=C(O)c1[nH]c2cc(Cl)ccc2c1C(NC1CCCCC1)c1nnnn1-c1cccc(OCc2ccccc2)c1 (configuration not stated)	Not Active	
	O=C(O)c1[nH]c2cc(Cl)ccc2c1C(NCc1ccc(Cl)cc1)c1nnnn1Cc1ccc(OCc2ccccc2Br)cc1 (configuration not stated)	Not Active	
	CCCCCNC(c1c(C(=O)O)[nH]c2cc(Cl)ccc12)c1nnnn1-c1ccc(OCc2ccccc2Br)cc1 (configuration not stated)	Not Active	
	O=C(O)c1[nH]c2cc(Cl)ccc2c1C(NCC1CCCCC1)c1nnnn1Cc1ccc(OCc2ccccc2Br)cc1 (configuration not stated)	Not Active	
	CCCCCNC(c1c(C(=O)O)[nH]c2cc(Cl)ccc12)c1nnnn1Cc1ccc(Cl)cc1 (configuration not stated)	Not Active	
	CCOC(=O)c1[nH]c2cc(Cl)ccc2c1C(NC1CCCC1)c1nnnn1-c1ccc(OCc2ccccc2)cc1 (configuration not stated)	Not Active	Not Active
117 µM	CCOC(=O)c1[nH]c2cc(Cl)ccc2c1C(NCC1CCCCC1)c1nnnn1-c1ccc(Cl)cc1 (configuration not stated)		
	CCCCCNC(c1c(C(=O)O)[nH]c2cc(Cl)ccc12)c1nnnn1-c1ccc(C(C)C)cc1 (configuration not stated)	Not Active	
	CCCCCNC(c1c(C(=O)OCC)[nH]c2cc(Cl)ccc12)c1nnnn1-c1ccc(OCc2ccc(Br)cc2)cc1 (configuration not stated)	Not Active	Not Active
	CCCCCNC(c1c(C(=O)OCC)[nH]c2cc(Cl)ccc12)c1nnnn1Cc1ccc(OCc2ccccc2Br)cc1 (configuration not stated)	Not Active	Not Active
	CCCCCNC(c1c(C(=O)O)[nH]c2cc(Cl)ccc12)c1nnnn1-c1ccc(Cl)cc1 (configuration not stated)	Not Active	
	O=C(O)c1[nH]c2cc(Cl)ccc2c1C(NCC1CCCCC1)c1nnnn1-c1ccc(OCc2ccccc2Br)cc1 (configuration not stated)	Not Active	
	CCCCCNC(c1c(C(=O)OCC)[nH]c2cc(Cl)ccc12)c1nnnn1Cc1ccc(OCc2ccccc2Cl)cc1 (configuration not stated)	Not Active	Not Active
